Experimental data: publication PMC10641818, “Development of First-in-Class Dual Sirt2/HDAC6 Inhibitors as Molecular Tools for Dual Inhibition of Tubulin Deacetylation” (Journal of Medicinal Chemistry, 2023)

Key:
Sirt2 (demyristoylation) = Sirt2 (demyristoylation) (Homo sapiens, UniProt Q8IXJ6); experiment: Continuous Sirt2 demyristoylation assay (myristoylated peptide substrate); format: biochemical; conditions: peptide-based myristoylated substrate, triplicate; read-out: Sirt2-mediated demyristoylation IC50
Description: As a second method to confirm the inhibition of Sirt2-mediated demyristoylation by 33, we used a continuous Sirt2 demyristoylation assay as reported by Zessin et al.[48] In brief, this assay was performed in a black 384-well fluorescence plate in a total volume of 40 μL of Sirt assay buffer (20 mM Tris-HCl, 150 mM NaCl, 5 mg/mL MgCl2, 2 mg/mL BSA, pH 7.8). Dilution series of the inhibitor was done in DMSO. A total of 2 μL of the inhibitor dilutions were incubated with 14 μL of the peptide substrate, referred to as F4 in Zessin et al.[48] (final concentration 40 nM) and 14 μL of Sirt2 solution (final concentration 1 nM) for 5 min at room temperature. In addition to the inhibitor-containing samples, a sample without inhibitors was measured as a positive control, and a sample without enzymes was measured as a negative control. The DMSO concentration was set to 5% (v/v). The reaction was started by the addition of 10 μL of NAD^+ (final concentration 500 μM). The product formation was monitored by the change in fluorescence intensity, and the reaction rate represented the activity. Fluorescence readout was performed with a BMG Fluostar Omega plate reader at following wavelengths: Excitation wavelength: λEx = 485 ± 10 nm, emission wavelength: λEm = 530 ± 10 nm. Inhibition was calculated using the following equation: [drawing 1] […]

HDAC9 = HDAC9 (Homo sapiens, UniProt Q9UKV0); experiment: HDAC9 continuous fluorescence deacylation assay; format: biochemical
HDAC3/NcoR2 = target: T1, HDAC3/NcoR2 (Homo sapiens, UniProt O15379); experiment: HDAC3 in vitro deacetylation assay (ZMAL); format: biochemical; conditions: mean ± SD
T1 construct: purchased BPS Bioscience 50003

[1] = system: histone H3 acetylation (marker of HDAC1-3 inhibition); experiment: Western blot on histone H3 hyperacetylation in MCF-7 cells; format: cell-based; conditions: 24 h, 10 µM
Description: Western blots on histone H3 hyperacetylation in MCF-7 cells were performed according to a previously published protocol.[72] In brief, MCF-7 were centrifuged (450g, 4 min, 22 °C) and lysed with cell extraction buffer (Thermo Fisher), supplemented with 0.1 mM PMSF, Halt Protease Inhibitor (Thermo Fisher), and Natriumorthovanadat (Thermo Fisher). Precast gels with a polymerization degree of 4–15% were used (Mini-PROTEAN TGX Stain-Free; Bio-Rad Laboratories GmbH, Munich, Germany). Proteins were transferred to Trans-Blot Turbo-PVDF membrane (Bio-Rad). The membrane was blocked with skimmed milk powder in Tris-buffered saline-Tween 20 (with 0.2% Tween 20) for 60 min, followed by three washing cycles of 10 min using Tris-buffered saline-Tween 20. Afterward, membranes were incubated with primary antibodies for ac.-Histon H3 (Cell Signal, rabbit) and GAPDH (Gene Tex, Irvine, USA, mouse) for a total of 60 min at room temperature and then incubated at 4 °C overnight. […] After rinsing of the secondary antibody, membranes were detected using ClarityECL Western Blotting Substrate (Bio-Rad). For quantitative determination, the StainFree technique was employed (Bio-Rad), as well as normalization, against the housekeeping protein GAPDH, which allows the imaging of whole lysates in SDS-PAGE before blotting and normalization against the total protein. […]

HDAC5 = HDAC5 (Homo sapiens, UniProt Q9UQL6); experiment: HDAC5 continuous fluorescence deacylation assay; format: biochemical
HDAC7 = target: T2, HDAC7 (Homo sapiens, UniProt Q8WUI4); experiment: HDAC7 continuous fluorescence deacylation assay; format: biochemical
T2 sequence (Q8WUI4 1-952): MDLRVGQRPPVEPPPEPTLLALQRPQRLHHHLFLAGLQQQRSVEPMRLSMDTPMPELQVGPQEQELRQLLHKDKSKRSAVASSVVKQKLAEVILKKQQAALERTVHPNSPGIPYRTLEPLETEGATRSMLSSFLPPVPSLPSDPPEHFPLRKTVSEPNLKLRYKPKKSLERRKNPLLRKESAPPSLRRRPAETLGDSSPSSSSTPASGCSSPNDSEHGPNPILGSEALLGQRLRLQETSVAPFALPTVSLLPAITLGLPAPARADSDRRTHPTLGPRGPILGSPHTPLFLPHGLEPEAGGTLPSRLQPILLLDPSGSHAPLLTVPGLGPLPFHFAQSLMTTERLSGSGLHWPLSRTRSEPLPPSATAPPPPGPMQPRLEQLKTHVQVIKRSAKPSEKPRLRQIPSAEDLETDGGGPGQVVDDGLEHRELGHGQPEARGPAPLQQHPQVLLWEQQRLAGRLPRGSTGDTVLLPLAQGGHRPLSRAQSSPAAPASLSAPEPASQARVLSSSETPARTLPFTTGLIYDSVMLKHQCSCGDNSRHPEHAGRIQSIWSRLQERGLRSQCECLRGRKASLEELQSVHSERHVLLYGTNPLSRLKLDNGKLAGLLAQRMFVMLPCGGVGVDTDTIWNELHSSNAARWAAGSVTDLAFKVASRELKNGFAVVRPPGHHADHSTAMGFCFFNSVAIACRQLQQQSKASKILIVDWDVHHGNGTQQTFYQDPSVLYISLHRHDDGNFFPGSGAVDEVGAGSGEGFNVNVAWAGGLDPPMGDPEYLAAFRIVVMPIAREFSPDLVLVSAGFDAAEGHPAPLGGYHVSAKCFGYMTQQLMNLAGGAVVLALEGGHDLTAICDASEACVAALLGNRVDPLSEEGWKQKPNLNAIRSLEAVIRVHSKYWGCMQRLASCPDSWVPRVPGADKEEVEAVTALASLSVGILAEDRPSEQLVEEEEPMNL

HDAC8 = HDAC8 (Homo sapiens, UniProt Q9BY41); experiment: HDAC8 in vitro deacylation assay (ZMTFAL); format: biochemical
Sequence of HDAC8 (Q9BY41 whole entry, species assumed): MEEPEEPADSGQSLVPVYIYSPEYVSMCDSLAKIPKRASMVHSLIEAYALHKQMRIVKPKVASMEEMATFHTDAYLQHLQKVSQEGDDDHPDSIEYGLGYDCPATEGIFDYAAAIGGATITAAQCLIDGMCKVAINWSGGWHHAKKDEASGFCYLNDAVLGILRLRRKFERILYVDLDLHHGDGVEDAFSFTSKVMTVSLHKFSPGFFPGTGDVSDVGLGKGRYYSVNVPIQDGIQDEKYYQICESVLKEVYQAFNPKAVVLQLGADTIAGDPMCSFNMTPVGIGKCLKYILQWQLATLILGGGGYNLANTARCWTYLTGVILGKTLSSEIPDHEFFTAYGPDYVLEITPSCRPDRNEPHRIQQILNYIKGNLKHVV

Sequence of HDAC9 (Q9UKV0 whole entry, species assumed): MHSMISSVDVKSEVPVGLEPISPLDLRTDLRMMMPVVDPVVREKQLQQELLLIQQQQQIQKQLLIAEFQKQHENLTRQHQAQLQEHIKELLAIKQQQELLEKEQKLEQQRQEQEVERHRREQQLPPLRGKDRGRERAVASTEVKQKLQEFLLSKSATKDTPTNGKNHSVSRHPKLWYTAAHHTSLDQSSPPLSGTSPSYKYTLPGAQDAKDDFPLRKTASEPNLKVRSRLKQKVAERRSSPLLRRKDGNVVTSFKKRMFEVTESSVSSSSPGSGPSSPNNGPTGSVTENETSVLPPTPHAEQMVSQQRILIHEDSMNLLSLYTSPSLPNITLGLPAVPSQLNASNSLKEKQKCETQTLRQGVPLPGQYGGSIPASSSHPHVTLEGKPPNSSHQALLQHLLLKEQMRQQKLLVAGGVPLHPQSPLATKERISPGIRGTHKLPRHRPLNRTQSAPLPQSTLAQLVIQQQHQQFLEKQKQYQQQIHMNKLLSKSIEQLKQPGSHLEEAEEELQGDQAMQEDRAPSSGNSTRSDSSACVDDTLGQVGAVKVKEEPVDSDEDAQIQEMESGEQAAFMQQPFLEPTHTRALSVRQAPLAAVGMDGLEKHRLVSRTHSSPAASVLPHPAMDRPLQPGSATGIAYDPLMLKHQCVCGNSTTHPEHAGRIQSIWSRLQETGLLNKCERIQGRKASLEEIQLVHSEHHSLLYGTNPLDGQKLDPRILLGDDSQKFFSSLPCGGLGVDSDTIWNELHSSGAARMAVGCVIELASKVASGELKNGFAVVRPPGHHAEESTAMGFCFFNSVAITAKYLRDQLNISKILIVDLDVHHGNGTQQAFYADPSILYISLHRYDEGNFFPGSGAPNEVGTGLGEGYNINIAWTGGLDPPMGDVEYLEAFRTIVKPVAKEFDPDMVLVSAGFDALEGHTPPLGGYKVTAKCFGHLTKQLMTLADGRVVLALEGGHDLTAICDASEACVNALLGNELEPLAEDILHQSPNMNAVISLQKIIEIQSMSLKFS
Sequence of HDAC5 (Q9UQL6 whole entry, species assumed): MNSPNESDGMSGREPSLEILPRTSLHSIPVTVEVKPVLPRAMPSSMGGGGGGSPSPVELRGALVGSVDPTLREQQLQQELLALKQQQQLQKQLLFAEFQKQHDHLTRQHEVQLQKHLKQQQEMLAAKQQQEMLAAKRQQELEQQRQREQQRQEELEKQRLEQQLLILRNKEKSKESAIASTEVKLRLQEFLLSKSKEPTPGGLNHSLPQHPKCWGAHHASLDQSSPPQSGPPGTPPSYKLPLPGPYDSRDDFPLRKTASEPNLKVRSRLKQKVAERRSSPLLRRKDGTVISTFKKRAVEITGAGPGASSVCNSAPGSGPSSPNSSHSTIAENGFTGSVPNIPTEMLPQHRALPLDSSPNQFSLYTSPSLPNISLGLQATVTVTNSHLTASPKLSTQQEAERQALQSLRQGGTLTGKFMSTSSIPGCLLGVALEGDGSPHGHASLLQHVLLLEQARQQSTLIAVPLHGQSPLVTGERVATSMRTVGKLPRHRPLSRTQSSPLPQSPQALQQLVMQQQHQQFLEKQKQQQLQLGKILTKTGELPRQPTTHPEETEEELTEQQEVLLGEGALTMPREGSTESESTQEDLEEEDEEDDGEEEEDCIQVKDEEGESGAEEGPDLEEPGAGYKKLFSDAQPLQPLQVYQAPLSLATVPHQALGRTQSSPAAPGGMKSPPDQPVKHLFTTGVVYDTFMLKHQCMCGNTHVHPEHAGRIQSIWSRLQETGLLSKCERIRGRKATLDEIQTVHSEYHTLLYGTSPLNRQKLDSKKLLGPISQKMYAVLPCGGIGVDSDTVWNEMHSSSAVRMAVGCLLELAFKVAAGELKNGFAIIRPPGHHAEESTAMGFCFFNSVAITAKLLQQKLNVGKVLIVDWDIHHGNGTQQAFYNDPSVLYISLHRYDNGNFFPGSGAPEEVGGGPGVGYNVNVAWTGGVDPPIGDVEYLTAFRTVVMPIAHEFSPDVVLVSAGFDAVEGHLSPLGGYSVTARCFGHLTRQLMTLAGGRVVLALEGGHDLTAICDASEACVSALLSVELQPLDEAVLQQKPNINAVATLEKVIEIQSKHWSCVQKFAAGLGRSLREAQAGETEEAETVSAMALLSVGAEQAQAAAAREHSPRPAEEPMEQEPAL
Sequence of Sirt2 (demyristoylation) (Q8IXJ6 whole entry): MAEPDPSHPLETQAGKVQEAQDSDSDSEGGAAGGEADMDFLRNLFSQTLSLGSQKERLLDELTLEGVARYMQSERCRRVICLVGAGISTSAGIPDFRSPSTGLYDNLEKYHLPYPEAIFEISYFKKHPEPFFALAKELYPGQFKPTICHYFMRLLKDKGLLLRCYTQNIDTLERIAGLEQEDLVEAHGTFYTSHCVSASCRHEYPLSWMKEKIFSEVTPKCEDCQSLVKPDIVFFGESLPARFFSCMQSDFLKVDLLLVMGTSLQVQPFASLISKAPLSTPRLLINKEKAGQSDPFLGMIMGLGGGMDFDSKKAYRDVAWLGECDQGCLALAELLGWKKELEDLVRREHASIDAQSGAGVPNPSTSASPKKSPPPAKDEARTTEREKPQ
T1 sequence (O15379 whole entry): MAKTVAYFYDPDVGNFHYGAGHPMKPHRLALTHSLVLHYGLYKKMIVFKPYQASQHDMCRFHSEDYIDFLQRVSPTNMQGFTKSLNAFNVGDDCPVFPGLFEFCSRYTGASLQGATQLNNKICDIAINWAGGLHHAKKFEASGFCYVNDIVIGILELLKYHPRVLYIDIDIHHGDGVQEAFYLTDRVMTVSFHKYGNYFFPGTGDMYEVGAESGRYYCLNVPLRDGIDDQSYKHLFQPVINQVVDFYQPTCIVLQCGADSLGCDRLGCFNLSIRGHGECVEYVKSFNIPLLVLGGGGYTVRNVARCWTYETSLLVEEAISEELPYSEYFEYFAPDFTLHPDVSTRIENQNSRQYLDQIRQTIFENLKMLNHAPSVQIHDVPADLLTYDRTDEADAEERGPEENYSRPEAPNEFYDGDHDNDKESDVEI
T1 sequence (Q9Y618 395-489 partner limits assumed): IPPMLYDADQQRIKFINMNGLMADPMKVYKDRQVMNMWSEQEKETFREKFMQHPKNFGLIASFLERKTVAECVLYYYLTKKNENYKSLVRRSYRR

IC50 (Sirt2 (demyristoylation)): 880 ± 90 nM
IC50 (HDAC9): > 20000 nM
inhibition at 6 µM (HDAC9; @ 6 µM, read-out: HDAC9 percentual inhibition): 17%
inhibition at 20 µM (HDAC9; @ 20 μM, read-out: HDAC9 percentual inhibition): 37%
IC50 (HDAC3/NcoR2): 2500 ± 200 nM
IC50 (HDAC5): > 6000 nM
inhibition at 6 µM (HDAC5; @ 6 µM, read-out: HDAC5 percentual inhibition): 18%
inhibition at 20 µM (HDAC5; @ 20 μM, read-out: HDAC5 percentual inhibition): 57%
IC50 (HDAC7): > 6000 nM
inhibition at 6 µM (HDAC7; @ 6 µM, read-out: HDAC7 percentual inhibition): 29%
inhibition at 20 µM (HDAC7; @ 20 μM, read-out: HDAC7 percentual inhibition): 57%
IC50 (HDAC8): 2940 ± 450 nM
Structure (SMILES): CCCCN(Cc1ccc(C(=O)NO)cc1)C(=O)CCCCn1cc(COc2cccc(Cc3cnc(NC(=O)CSc4nc(C)cc(C)n4)s3)c2)nn1 [Compound 33, 4-((N-Butyl-5-(4-((3-((2-(2-((4,6-dimethylpyrimidin-2-yl)thio)acetamido)thiazol-5-yl)methyl)phenoxy)methyl)-1H-1,2,3-triazol-1-yl)pentanamido)methyl)-N-hydroxybenzamide]
Histone H3 hyperacetylation (cellular class I HDAC off-target inhibition) [1]: no significant off-target inhibition of class I
